# Laboratory results published in patent US7960383B2, “Pyridazin-3(2H)-one derivatives and their use as PDE4 inhibitors” (Laboratorios Almirall SA, priority 2004, dated 2011).
# Molecular target: PDE4 (Homo sapiens, UniProt Q07343)
# Assay: PDE4 Assay Procedure ([3H]-cAMP SPA)
# Format: biochemical
# Settings: read-out: HPDE4B or IC50 PDE4
# Method: Compounds to be tested were resuspended in DMSO at a stock concentration of 1 mM. The compounds were tested at different concentrations varying from 10 pM to 10 μM to calculate an IC50. These dilutions were done in 96-well plates. In some cases, plates containing diluted compounds were frozen before being assayed. In these cases, the plates were thawed at room temperature and stirred for 15 minutes.
# Ten microliters of the diluted compounds were poured into a “low binding” assay plate. Eighty microliters of reaction mixture containing 50 mM Tris pH 7.5, 8.3 mM MgCl2, 1.7 mM EGTA, and 15 nM [3H]-cAMP were added to each well. The reaction was initiated by adding ten microliters of a solution containing PDE4. The plate was then incubated under stirring for 1 hour at room temperature. After incubation the reaction was stopped with 50 microlitres of SPA beads, and the reaction was allowed to incubate for another 20 minutes at room temperature before measuring radioactivity using standard instrumentation.
# The reaction mixture was prepared by adding 90 ml of H2O to 10 ml of 10× assay buffer (500 mM Tris pH 7.5, 83 mM MgCl2, 17 mM EGTA), and 40 microlitres 1 μCi/μL [3H]-cAMP. SPA beads solution was prepared by adding 500 mg to […] H2O for a final concentration of 20 mg/ml beads and 18 mM zinc sulphate.
# PDE4, sequence (Q07343 whole entry): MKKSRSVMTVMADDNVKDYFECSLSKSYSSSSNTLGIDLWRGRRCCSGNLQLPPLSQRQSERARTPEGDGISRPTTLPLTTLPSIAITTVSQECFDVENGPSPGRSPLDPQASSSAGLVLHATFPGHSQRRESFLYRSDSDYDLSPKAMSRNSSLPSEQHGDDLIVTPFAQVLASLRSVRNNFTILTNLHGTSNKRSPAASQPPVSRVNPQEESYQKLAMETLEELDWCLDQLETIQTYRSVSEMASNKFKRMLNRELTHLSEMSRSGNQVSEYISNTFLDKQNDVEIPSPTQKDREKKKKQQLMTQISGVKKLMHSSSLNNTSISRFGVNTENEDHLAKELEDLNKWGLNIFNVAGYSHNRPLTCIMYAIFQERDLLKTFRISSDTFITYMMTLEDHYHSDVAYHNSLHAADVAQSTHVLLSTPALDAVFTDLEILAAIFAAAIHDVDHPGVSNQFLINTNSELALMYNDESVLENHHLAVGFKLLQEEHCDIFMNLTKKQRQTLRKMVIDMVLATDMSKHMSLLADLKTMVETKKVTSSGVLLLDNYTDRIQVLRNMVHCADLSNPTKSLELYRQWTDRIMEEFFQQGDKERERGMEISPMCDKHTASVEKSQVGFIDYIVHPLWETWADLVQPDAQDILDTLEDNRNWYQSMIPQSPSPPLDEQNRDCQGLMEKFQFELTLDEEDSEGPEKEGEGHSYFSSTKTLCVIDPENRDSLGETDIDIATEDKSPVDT
row,Compound,IC50 [nM]
1,"CCn1nc(C(=O)OCc2ccccc2)cc(Nc2cnccc2C)c1=O [Example 1, Benzyl 1-ethyl-5-(4-methylpyridin-3-ylamino)-6-oxo-1,6-dihydropyridazine-3-carboxylate]",52
2,"CCn1nc(C(=O)OCc2ccsc2)cc(Nc2cnccc2C)c1=O [Example 10, Thiophen-3-ylmethyl 1-ethyl-5-(4-methylpyridin-3-ylamino)-6-oxo-1,6-dihydropyridazine-3-carboxylate]",19
3,"CCn1nc(C(=O)OCc2cccc(Cl)c2)cc(Nc2cncc3ccccc23)c1=O [Example 13, 3-Chlorobenzyl 1-ethyl-5-(isoquinolin-4-ylamino)-6-oxo-1,6-dihydropyridazine-3-carboxylate]",2.9
4,"CCn1nc(C(=O)OC(C)c2ccccc2)cc(Nc2cncc3ccccc23)c1=O (stereo not drawn) [Example 14, 1-Phenylethyl 1-ethyl-5-(isoquinolin-4-ylamino)-6-oxo-1,6-dihydropyridazine-3-carboxylate]",2.4
5,"CCOC(=O)c1nn(CC)c(=O)c(Nc2cncc3ccccc23)c1C(C)=O [Example 23, Ethyl 4-acetyl-1-ethyl-5-(isoquinolin-4-ylamino)-6-oxo-1,6-dihydropyridazine-3-carboxylate]",14
6,"CCn1nc(C(=O)OCc2ccccc2)c(C(C)=O)c(Nc2cccnc2)c1=O [Example 26, Benzyl 4-acetyl-1-ethyl-6-oxo-5-(pyridin-3-ylamino)-1,6-dihydropyridazine-3-carboxylate]",5.1
7,"CCn1nc(C(=O)OC(C)C)c(C(C)=O)c(Nc2cncc3ccccc23)c1=O [Example 27, Isopropyl 4-acetyl-1-ethyl-5-(isoquinolin-4-ylamino)-6-oxo-1,6-dihydropyridazine-3-carboxylate]",16
8,"CCn1nc(C(=O)OC2CCC2)c(C(C)=O)c(Nc2cncc3ccccc23)c1=O [Example 36, Cyclobutyl 4-acetyl-1-ethyl-5-(isoquinolin-4-ylamino)-6-oxo-1,6-dihydropyridazine-3-carboxylate]",44
9,"CCn1nc(C(=O)OC(C)Cc2ccccc2)c(C(C)=O)c(Nc2cncc3ccccc23)c1=O (stereo not drawn) [Example 38, 1-Methyl-2-phenylethyl 4-acetyl-1-ethyl-5-(isoquinolin-4-ylamino)-6-oxo-1,6-dihydropyridazine-3-carboxylate]",13
10,"CCn1nc(C(=O)OC(C)c2ccccc2)c(C(C)=O)c(Nc2cnccc2C)c1=O (stereo not drawn) [Example 41, 1-Phenylethyl 4-acetyl-1-ethyl-5-[(4-methylpyridin-3-yl)amino]-6-oxo-1,6-dihydropyridazine-3-carboxylate]",69
11,"CCCCCCCCOC(=O)c1nn(CC)c(=O)c(Nc2cncc3ccccc23)c1C(C)=O [Example 71, Octyl 4-acetyl-1-ethyl-5-(isoquinolin-4-ylamino)-6-oxo-1,6-dihydropyridazine-3-carboxylate]",5

# These reach a lower IC50. Values come first.
row,IC50 [nM],Compound
1,1.9,"CCn1nc(C(=O)OCc2ccccc2)c(C(C)=O)c(Nc2cncc3ccccc23)c1=O [Example 33, Benzyl 4-acetyl-1-ethyl-5-(isoquinolin-4-ylamino)-6-oxo-1,6-dihydropyridazine-3-carboxylate]"
2,1.6,"CCn1nc(C(=O)OCc2cccc(OC)c2)cc(Nc2cncc3ccccc23)c1=O [Example 11, 3-Methoxybenzyl 1-ethyl-5-(isoquinolin-4-ylamino)-6-oxo-1,6-dihydropyridazine-3-carboxylate]"
3,1.5,"CCn1nc(C(=O)OC(C)c2ccccc2)c(C(C)=O)c(Nc2cncc3ccccc23)c1=O (stereo not drawn) [Example 39, 1-Phenylethyl 4-acetyl-1-ethyl-5-(isoquinolin-4-ylamino)-6-oxo-1,6-dihydropyridazine-3-carboxylate]"
4,0.73,"CCn1nc(C(=O)OCCOc2ccccc2)cc(Nc2cncc3ccccc23)c1=O [Example 49, 2-Phenoxyethyl 1-ethyl-5-(isoquinolin-4-ylamino)-6-oxo-1,6-dihydropyridazine-3-carboxylate]"
5,0.49,"CCn1nc(C(=O)OCc2cccc(Cl)c2)c(C(C)=O)c(Nc2cncc3ccccc23)c1=O [Example 69, 3-Chlorobenzyl 4-acetyl-1-ethyl-5-(isoquinolin-4-ylamino)-6-oxo-1,6-dihydropyridazine-3-carboxylate]"
6,0.48,"CCn1nc(C(=O)OCc2ccc(Br)cc2)cc(Nc2cncc3ccccc23)c1=O [Example 51, 4-Bromobenzyl 1-ethyl-5-(isoquinolin-4-ylamino)-6-oxo-1,6-dihydropyridazine-3-carboxylate]"
7,0.36,"CCn1nc(C(=O)OCOC(=O)C(C)(C)CC)cc(Nc2cncc3ccccc23)c1=O [Example 66, 2,2-Dimethylbutyryloxymethyl 1-ethyl-5-(isoquinolin-4-ylamino)-6-oxo-1,6-dihydropyridazine-3-carboxylate]"
